Measured values published in the supplement of paper PMC10307832.

Assays:
Test in all cases: relative viability (nuclei count vs DMSO), 5 days (fraction); higher = more cells survive
Dinaciclib = compound: CCc1cnn2c(NCc3ccc[n+]([O-])c3)cc(N3CCCC[C@H]3CCO)nc12 [Dinaciclib]
Method in brief: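 Hoechst staining, done together with fixation and permeabilisation, marked nuclei for 4× imaging and MetaXpress counting. This followed 5 days without medium change after lung cancer cell lines, kept overnight at 37 °C in 1536-well plates, were pinned with five library-drug doses (not always all listed) spaced by √10 on vehicle-anchored plates. Viability is the ratio of treated-well to vehicle-well nuclei, expressed as a median across plates. Plates passed only at control CV below 25% with at least one doubling.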

Dinaciclib + Trametinib = compound: CCc1cnn2c(NCc3ccc[n+]([O-])c3)cc(N3CCCC[C@H]3CCO)nc12 [Dinaciclib] + CC(=O)Nc1cccc(-n2c(=O)n(C3CC3)c(=O)c3c(Nc4ccc(I)cc4F)n(C)c(=O)c(C)c32)c1 [Trametinib] (partner 0.02 µM)
Method in brief: (§1)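 A single step with final 0.05% Triton X-100, 1% formaldehyde and 1 ug/ml Hoechst fixed the cells and stained nuclei 5 days after treatment. Lung cancer cell lines in 1536-well plates had been treated by pin tool the day after seeding with one drug alone or a fixed anchor-drug dose plus five library-drug doses (not always all listed) in √10 steps, and nuclei were counted on 4× images. Relative viability is the ratio of nuclei in treated wells to nuclei in vehicle wells, taken as the median of duplicate plates.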

Dinaciclib + Palbociclib = compound: CCc1cnn2c(NCc3ccc[n+]([O-])c3)cc(N3CCCC[C@H]3CCO)nc12 [Dinaciclib] + CC(=O)c1c(C)c2cnc(Nc3ccc(N4CCNCC4)cn3)nc2n(C2CCCC2)c1=O [Palbociclib] (partner 0.5 µM)
Method in brief: as §1

Dinaciclib + Luminespib = compound: CCc1cnn2c(NCc3ccc[n+]([O-])c3)cc(N3CCCC[C@H]3CCO)nc12 [Dinaciclib] + CCNC(=O)c1noc(-c2cc(C(C)C)c(O)cc2O)c1-c1ccc(CN2CCOCC2)cc1 [Luminespib] (partner 0.01 µM)
Method in brief: as §1

Dinaciclib + Foretinib = compound: CCc1cnn2c(NCc3ccc[n+]([O-])c3)cc(N3CCCC[C@H]3CCO)nc12 [Dinaciclib] + COc1cc2c(Oc3ccc(NC(=O)C4(C(=O)Nc5ccc(F)cc5)CC4)cc3F)ccnc2cc1OCCCN1CCOCC1 [Foretinib] (partner 0.25 µM)
Method in brief: as §1

Dinaciclib + OSI-027 = compound: CCc1cnn2c(NCc3ccc[n+]([O-])c3)cc(N3CCCC[C@H]3CCO)nc12 [Dinaciclib] + COc1cccc2cc(-c3nc([C@H]4CC[C@H](C(=O)O)CC4)n4ncnc(N)c34)[nH]c12 [OSI-027] (partner 0.5 µM)
Method in brief: as §1

Dinaciclib + Tozasertib = compound: CCc1cnn2c(NCc3ccc[n+]([O-])c3)cc(N3CCCC[C@H]3CCO)nc12 [Dinaciclib] + Cc1cc(Nc2cc(N3CCN(C)CC3)nc(Sc3ccc(NC(=O)C4CC4)cc3)n2)n[nH]1 [Tozasertib] (partner 0.1 µM)
Method in brief: as §1

Dinaciclib + Dasatinib = compound: CCc1cnn2c(NCc3ccc[n+]([O-])c3)cc(N3CCCC[C@H]3CCO)nc12 [Dinaciclib] + Cc1nc(Nc2ncc(C(=O)Nc3c(C)cccc3Cl)s2)cc(N2CCN(CCO)CC2)n1 [Dasatinib] (partner 0.075 µM)
Method in brief: as §1

Dinaciclib + Phenformin = compound: CCc1cnn2c(NCc3ccc[n+]([O-])c3)cc(N3CCCC[C@H]3CCO)nc12 [Dinaciclib] + N=C(N)NC(=N)NCCc1ccccc1 [Phenformin] (partner 250 µM)
Method in brief: as §1

Dinaciclib + AZD7762 = compound: CCc1cnn2c(NCc3ccc[n+]([O-])c3)cc(N3CCCC[C@H]3CCO)nc12 [Dinaciclib] + NC(=O)Nc1cc(-c2cccc(F)c2)sc1C(=O)N[C@H]1CCCNC1 [AZD7762] (partner 0.2 µM)
Method in brief: as §1

Dinaciclib + Pemetrexed = compound: CCc1cnn2c(NCc3ccc[n+]([O-])c3)cc(N3CCCC[C@H]3CCO)nc12 [Dinaciclib] + Nc1nc2[nH]cc(CCc3ccc(C(=O)N[C@@H](CCC(=O)O)C(=O)O)cc3)c2c(=O)[nH]1 [Pemetrexed] (partner 0.2 µM)
Method in brief: as §1

Dinaciclib + Decitabine = compound: CCc1cnn2c(NCc3ccc[n+]([O-])c3)cc(N3CCCC[C@H]3CCO)nc12 [Dinaciclib] + Nc1ncn([C@H]2C[C@H](O)[C@@H](CO)O2)c(=O)n1 [Decitabine] (partner 2 µM)
Method in brief: as §1

Dinaciclib + Vorinostat = compound: CCc1cnn2c(NCc3ccc[n+]([O-])c3)cc(N3CCCC[C@H]3CCO)nc12 [Dinaciclib] + O=C(CCCCCCC(=O)Nc1ccccc1)NO [Vorinostat] (partner 1 µM)
Method in brief: as §1

Dinaciclib + Olaparib = compound: CCc1cnn2c(NCc3ccc[n+]([O-])c3)cc(N3CCCC[C@H]3CCO)nc12 [Dinaciclib] + O=C(c1cc(Cc2n[nH]c(=O)c3ccccc23)ccc1F)N1CCN(C(=O)C2CC2)CC1 [Olaparib] (partner 8 µM)
Method in brief: as §1

SW 900
relative viability (Dinaciclib; 0.009487 µM): 0.809
relative viability (Dinaciclib; 0.03 µM): 0.286
relative viability (Dinaciclib; 0.09487 µM): 0.119
relative viability (Dinaciclib; 0.3 µM): 0.133
relative viability (Dinaciclib + Trametinib; first compound 0.009487 µM): 0.805
relative viability (Dinaciclib + Trametinib; first compound 0.03 µM): 0.477
relative viability (Dinaciclib + Trametinib; first compound 0.09487 µM): 0.177
relative viability (Dinaciclib + Trametinib; first compound 0.3 µM): 0.155
relative viability (Dinaciclib + Palbociclib; first compound 0.009487 µM): 0.57
relative viability (Dinaciclib + Palbociclib; first compound 0.03 µM): 0.318
relative viability (Dinaciclib + Palbociclib; first compound 0.09487 µM): 0.13
relative viability (Dinaciclib + Palbociclib; first compound 0.3 µM): 0.158
relative viability (Dinaciclib + Luminespib; first compound 0.009487 µM): 0.19
relative viability (Dinaciclib + Luminespib; first compound 0.03 µM): 0.176
relative viability (Dinaciclib + Luminespib; first compound 0.09487 µM): 0.0768
relative viability (Dinaciclib + Luminespib; first compound 0.3 µM): 0.0536
relative viability (Dinaciclib + Foretinib; first compound 0.009487 µM): 0.874
relative viability (Dinaciclib + Foretinib; first compound 0.03 µM): 0.462
relative viability (Dinaciclib + Foretinib; first compound 0.09487 µM): 0.0641
relative viability (Dinaciclib + Foretinib; first compound 0.3 µM): 0.0639
relative viability (Dinaciclib + OSI-027; first compound 0.009487 µM): 0.578
relative viability (Dinaciclib + OSI-027; first compound 0.03 µM): 0.103
relative viability (Dinaciclib + OSI-027; first compound 0.09487 µM): 0.0689
relative viability (Dinaciclib + OSI-027; first compound 0.3 µM): 0.098
relative viability (Dinaciclib + Tozasertib; first compound 0.009487 µM): 0.707
relative viability (Dinaciclib + Tozasertib; first compound 0.03 µM): 0.149
relative viability (Dinaciclib + Tozasertib; first compound 0.09487 µM): 0.0868
relative viability (Dinaciclib + Tozasertib; first compound 0.3 µM): 0.0829
relative viability (Dinaciclib + Dasatinib; first compound 0.009487 µM): 0.61
relative viability (Dinaciclib + Dasatinib; first compound 0.03 µM): 0.246
relative viability (Dinaciclib + Dasatinib; first compound 0.09487 µM): 0.0591
relative viability (Dinaciclib + Dasatinib; first compound 0.3 µM): 0.0806
relative viability (Dinaciclib + Phenformin; first compound 0.009487 µM): 0.612
relative viability (Dinaciclib + Phenformin; first compound 0.03 µM): 0.141
relative viability (Dinaciclib + Phenformin; first compound 0.09487 µM): 0.0751
relative viability (Dinaciclib + Phenformin; first compound 0.3 µM): 0.101
relative viability (Dinaciclib + AZD7762; first compound 0.009487 µM): 0.705
relative viability (Dinaciclib + AZD7762; first compound 0.03 µM): 0.405
relative viability (Dinaciclib + AZD7762; first compound 0.09487 µM): 0.179
relative viability (Dinaciclib + AZD7762; first compound 0.3 µM): 0.148
relative viability (Dinaciclib + Pemetrexed; first compound 0.009487 µM): 0.448
relative viability (Dinaciclib + Pemetrexed; first compound 0.03 µM): 0.195
relative viability (Dinaciclib + Pemetrexed; first compound 0.09487 µM): 0.166
relative viability (Dinaciclib + Pemetrexed; first compound 0.3 µM): 0.153
relative viability (Dinaciclib + Decitabine; first compound 0.009487 µM): 0.408
relative viability (Dinaciclib + Decitabine; first compound 0.03 µM): 0.325
relative viability (Dinaciclib + Decitabine; first compound 0.09487 µM): 0.182
relative viability (Dinaciclib + Decitabine; first compound 0.3 µM): 0.151
relative viability (Dinaciclib + Vorinostat; first compound 0.009487 µM): 0.557
relative viability (Dinaciclib + Vorinostat; first compound 0.03 µM): 0.33
relative viability (Dinaciclib + Vorinostat; first compound 0.09487 µM): 0.171
relative viability (Dinaciclib + Vorinostat; first compound 0.3 µM): 0.143
relative viability (Dinaciclib + Olaparib; first compound 0.009487 µM): 0.749
relative viability (Dinaciclib + Olaparib; first compound 0.03 µM): 0.414
relative viability (Dinaciclib + Olaparib; first compound 0.09487 µM): 0.172
relative viability (Dinaciclib + Olaparib; first compound 0.3 µM): 0.166
